Assays:
Nannochloropsis [1] = assay: outdoor open pond cultivation with chlorine addition (condition four)
Protocol: Chlorine compounds may be added directly to the cultivation vessel. They may be added to the water of dilution of the cultivation vessel. In either case they may be added in solid (granular) form, liquid form, or as chlorine gas. In experiments performed by the inventors, the chlorine was added as a liquid (e.g., sodium hypochlorite). Typically, 10-12% solutions of sodium hypochlorite were diluted 10 to 100 fold and added directly to the cultivation reactor to achieve the initial concentration of sodium hypochlorite cited in each case.
(§1) In the following examples, Nannochloropsis was grown in outdoor, open, ponds in Vero Beach, Fla. The climate in Vero Beach is semitropical, with mild winters and hot, humid summers. It is a challenging climate for keeping outdoor algal cultures stable and productive. The overnight warmth encourages predation by protozoa, rotifers, and crustaceans. The humidity allows the airborne transport of competing algae, and thus increases the rate of invasion. In some of the examples the techniques applied were successful in keeping Nannochloropsis as the dominant alga, at ninety-five percent (95%) to nearly one-hundred percent (100%) of the algal biomass, even when competitors and/or predators were intentionally introduced to the algae cultivation system. In some cases, predators were undetectable most of the time, even after they were intentionally introduced.
Ten ponds (four 1.4 square meter, four 3 square meter, and two approximately 200 square meter) were used to test many conditions of salinity and chlorination over fifteen months. Not all of the conditions were run for that whole time period. The results from the following seven conditions are summarized below: 1) 35-36 PPT (full) seawater salinity, 2) 28-30 PPT (dilution of full seawater with fresh water in a ratio of 3:1), 3) 22-24 PPT (dilution of full seawater with fresh water in a ratio of about 2:1), 4) condition no. 3 with chlorine added to the pond every other day to an initial concentration of sodium hypochlorite of 3 ppm, 5) 10-12 PPT (dilution of full seawater with fresh water in a ratio of about 1:2), 6) 5-7 PPT (dilution of full seawater with fresh water in a ratio of about 1:6. and 7) about 1 PPT (dilution of seawater with fresh water in a ratio of about 1:40).
Condition four was run from Oct. 4, 2007 until Jun. […] Commercial chlorine solutions were added to the algae cultivation systems every other day to obtain an initial concentration of 2.5-3 mg of sodium hypochlorite. […] The Nannochloropsis was cultivated without interruption and at greater than 95% dominance, throughout the entire cultivation period (over eight months). […] Species added included Tetraselmis and Dunaliella, along with amoeba, protozoa, and crustaceans. The Tetraselmis and Dunaliella cultures were decimated by the predators. The predators were not observable in the Nannochloropsis cultures after a few days.

[2] = system: predators (amoeba, protozoa, and crustaceans); assay: outdoor open pond cultivation with chlorine addition: growth of introduced predators; conditions: 2.5-3 mg every other day, 22-24 PPT
Protocol: as §1
Ten ponds (four 1.4 square meter, four 3 square meter, and two approximately 200 square meter) were used to test many conditions of salinity and chlorination over fifteen months. Not all of the conditions were run for that whole time period. The results from the following seven conditions are summarized below: 1) 35-36 PPT (full) seawater salinity, 2) 28-30 PPT (dilution of full seawater with fresh water in a ratio of 3:1), 3) 22-24 PPT (dilution of full seawater with fresh water in a ratio of about 2:1), 4) condition no. […]

Nannochloropsis [3] = assay: hypochlorite kill curve: dry biomass productivity of laboratory Nannochloropsis cultures; type: cell-based; conditions: for Mean Productivity of Nannochloropsis: daily addition
Protocol: Algal cultivation: 800 ml cultures are maintained in one inch thick Roux flasks with continuous magnetic stirring. Continuous illumination at 700 MicroEinsteins per meter squared per second is provided by four 54-watt T5 fluorescent bulbs rated with a correlated color temperature of […]. 1% CO2 is bubbled through […] rate sufficient to maintain a pH between 7.0 and 8.5. Photoautotrophic growth is maintained on UFM media formulated with artificial seawater (35 g/L Instant Ocean) containing 720 mg/L urea, 168 mg/L K2HPO4, 1.5 ml/L of a metals solution and 1 ml/L of a vitamin solution. The metals solution contains 39.7 g/L Fe(III)Cl3(6H2O), 30.0 g/L EDTA, 1.2 g/L MnCl2(4H2O), 0.08 g/L CoCl2(6H2O), 0.16 g/L ZnSO4(7H2O), 0.067 g/L CuSO4(5H2O), 0.023 g/L Na2MoO4(2H2O). The vitamins solution contains 0.001 g/L vitamin B12, 0.001 g/L Biotin, and 0.2 g/L Thiamine. Cultures are diluted by exchanging 400 ml of culture with fresh media every day at the same time. From the 400 ml that are removed, the dry biomass concentration is determined as below. Determination of culture biomass concentration: A sample of the culture between 0.5 and five milliliters is vacuum filtered through a pre-rinsed and pre-ashed Whatman GF/C glass microfiber filter disc. The cake is rinsed with twenty milliliters of 0.7M ammonium formate and dried for at least 2 hours at 105° C. The dried sample is weighed on an analytical balance and then ashed at 550° C. for at least 1 hour. The post ash weight is subtracted from the pre-ash weight and divided by the volume of the sample to get the ash-free dry biomass density in milligrams per milliliter. Given the dilution volume and the previous day's dry biomass concentration, the current day's dry biomass concentration can be used to establish the culture's dry biomass productivity in grams per liter per day. This productivity value can then be compared across different experimental conditions. For the hypochlorite kill curve, four cultures are measured for productivity as above, each of which receives a different dose of sodium hypochlorite with the fresh media that is added at dilution time. The final concentration of sodium hypochlorite following dilution for each of the four cultures is 0, 20, 40 and 80 milligrams per liter.

## OCl [sodium hypochlorite]
Nannochloropsis [1]; 2.5-3 mg every other day, 22-24 PPT, over eight months
  Nannochloropsis dominance throughout the cultivation period: greater than 95%
Nannochloropsis [1]; 22-24 PPT, cooler months
  contamination versus non-chlorinated cultures at the same salinity: no observable difference
Nannochloropsis [1]; 22-24 PPT, warmer months of the year
  contamination versus non-chlorinated cultures at the same salinity: less contamination than non-chlorinated cultures
Nannochloropsis [1]; condition four, about 250 days
  culture stability over the run: without stability problems
Nannochloropsis [1]; initial concentration 2.5-3 mg every other day, salinity 22-24 PPT
  effect on productivity compared to condition three with no added chlorine: often had no effect on productivity
[2]
  growth of predators added to the chlorinated cultures: No predators were able to grow
Nannochloropsis [3]; above 80 milligrams/liter, exposure not prolonged
  survival of Nannochloropsis cultures after extremely high exposure: recover
Nannochloropsis [3]; at least 80 milligrams/liter
  productivity of Nannochloropsis in the first two days following administration: zero productivity
Nannochloropsis [3]; shock amount, initial concentration 40-80 milligrams/liter or higher
  time for Nannochloropsis to recover after shock injection: two to three
Nannochloropsis [3]; sodium hypochlorite 20 Milligrams/Liter
  Mean Productivity of Nannochloropsis: 570 Milligrams/Liter/Day
Nannochloropsis [3]; sodium hypochlorite 40 Milligrams/Liter
  Mean Productivity of Nannochloropsis: 460 Milligrams/Liter/Day
Nannochloropsis [3]; sodium hypochlorite 80 Milligrams/Liter
  Mean Productivity of Nannochloropsis: 0 Milligrams/Liter/Day

— patent US8940340B2, “Systems and methods for maintaining the dominance of Nannochloropsis in an algae cultivation system” (Aurora Algae, Inc., priority 2009, dated 2015)
